Patent US12202818B2, “Compounds and methods for CD73 modulation and indications therefor” (Opna Bio SA, priority 2020, dated 2025)

Legend:
[1] = target: T1, Human CD73 (amino acid residues 27-549) (Homo sapiens, UniProt P21589); assay: CD73 enzymatic assay (luciferase-based indirect assay, CellTiter-Glo); assay type: biochemical; conditions: 0.4 nM CD73, 150 μM AMP, 1 hour at room temperature
T1 construct: Human CD73 (amino acid residues 27-549); His tag (N); made in house; host or cells: E. coli
T1 sequence (P21589 27-549): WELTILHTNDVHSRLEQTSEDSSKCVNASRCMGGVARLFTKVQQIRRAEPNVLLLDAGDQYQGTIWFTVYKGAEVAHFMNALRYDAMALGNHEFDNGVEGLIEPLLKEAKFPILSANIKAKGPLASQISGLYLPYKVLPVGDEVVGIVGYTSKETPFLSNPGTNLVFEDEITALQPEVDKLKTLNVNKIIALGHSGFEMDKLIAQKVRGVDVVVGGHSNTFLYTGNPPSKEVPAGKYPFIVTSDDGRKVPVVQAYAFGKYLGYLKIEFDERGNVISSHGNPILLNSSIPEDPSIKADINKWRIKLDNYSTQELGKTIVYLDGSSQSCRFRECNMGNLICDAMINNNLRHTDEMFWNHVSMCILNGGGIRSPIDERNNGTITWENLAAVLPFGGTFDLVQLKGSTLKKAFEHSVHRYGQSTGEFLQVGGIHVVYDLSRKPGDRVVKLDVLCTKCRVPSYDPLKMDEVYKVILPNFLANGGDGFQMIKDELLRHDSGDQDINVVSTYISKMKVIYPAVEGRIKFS
How it was run: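 N-His human CD73 (27-549) expressed in E. coli, 0.4 nM, incubated with 150 μM AMP and compound in 50 mM HEPES pH 7.4, 0.01% Tween-20, 1 h at RT. Remaining AMP read via CellTiter-Glo luminescence with 1 μM ATP after 30 min; IC50 from nonlinear regression of % inhibition.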

human CD73 = target: T2, human CD73 (Homo sapiens, UniProt P21589); assay: Inhibitor activity against CD73 in cell based assay (CD73 expressing CHO-K1 cells); conditions: CHO-K1 cells expressing human CD73, 150 μM AMP, 4 hours of incubation; read-out: CHO-K1 CELL_VARIANT: CD73 IC50
T2 construct: expressed in transfected cells
T2 sequence (P21589 27-549): T1 sequence (P21589 27-549)
How it was run: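 Stable human CD73 CHO-K1 cells, 1×10^4/well, exposed to an 8-point 1:3 compound series (top 10 μM, 0.2% DMSO) plus 150 μM AMP for 4 h. Remaining AMP in the supernatant was read by CellTiter-Glo 2.0 luminescence with 1 μM ATP after 30 min at room temperature. IC50 came from nonlinear regression of % inhibition against cell and media-only controls.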

SMILES | IC50 [1] | IC50 (human CD73)
Cc1nn(C)c(C)c1-c1cc(O[C@H]2CN(c3cnn(CCO)c(=O)c3Cl)C[C@@H]2F)ccn1 [P-0119, 4-chloro-5-((3S,4S)-3-fluoro-4-((2-(1,3,5-trimethyl-1H-pyrazol-4-yl)pyridin-4-yl)oxy)pyrrolidin-1-yl)-2-(2-hydroxyethyl)pyridazin-3(2H)-one] | 0.001 to 10 µM | 0.001 to 10 µM
CCCS(=O)(=O)N1CCN(c2ccnc(O[C@@H]3CCN(c4cn[nH]c(=O)c4Cl)C3)c2)CC1 [P-0239, (R)-4-chloro-5-(3-((4-(4-(propylsulfonyl)piperazin-1-yl)pyridin-2-yl)oxy)pyrrolidin-1-yl)pyridazin-3(2H)-one] | 0.001 to 10 µM | 0.001 to 10 µM
O=c1c(Cl)c(N2CC[C@@H](Oc3ncccc3NC3CCC(F)(F)CC3)C2)cnn1CCO [P-0102, (R)-4-chloro-5-(3-((3-((4,4-difluorocyclohexyl)amino)pyridin-2-yl)oxy)pyrrolidin-1-yl)-2-(2-hydroxyethyl)pyridazin-3(2H)-one] | 0.001 to 10 µM | 0.001 to 10 µM
O=c1[nH]ncc(N2CC[C@@H](Oc3cc(-n4cccc4)ccn3)C2)c1Cl [P-0252, (R)-5-(3-((4-(1H-pyrrol-1-yl)pyridin-2-yl)oxy)pyrrolidin-1-yl)-4-chloropyridazin-3(2H)-one] | 0.001 to 10 µM | 0.001 to 10 µM
O=c1[nH]ncc(N2CC[C@@H](Oc3cc(N4CCC5(CC4)CC(F)(F)C5)ccn3)C2)c1Cl [P-0024, (R)-4-chloro-5-(3-((4-(2,2-difluoro-7-azaspiro[3.5]nonan-7-yl)pyridin-2-yl)oxy)pyrrolidin-1-yl)pyridazin-3(2H)-one] | 0.001 to 10 µM | 0.001 to 10 µM
Cc1nn(C)c(C)c1-c1ccnc(O[C@@H]2CCN(c3cnn(CC(O)CO)c(=O)c3Cl)C2)c1 (stereo partly drawn) [P-0131, 4-chloro-2-(2,3-dihydroxypropyl)-5-((R)-3-((4-(1,3,5-trimethyl-1H-pyrazol-4-yl)pyridin-2-yl)oxy)pyrrolidin-1-yl)pyridazin-3(2H)-one] | 0.001 to 10 µM | 0.001 to 10 µM
Cc1nn(CCN(C)C)c(C)c1-c1cc(F)nc(O[C@@H]2CCN(c3cn[nH]c(=O)c3Cl)C2)c1 [P-0161, (R)-4-chloro-5-(3-((4-(1-(2-(dimethylamino)ethyl)-3,5-dimethyl-1H-pyrazol-4-yl)-6-fluoropyridin-2-yl)oxy)pyrrolidin-1-yl)pyridazin-3(2H)-one] | 0.001 to 10 µM | 0.001 to 10 µM
CC1(C)CC=C(c2ccnc(O[C@@H]3CCN(c4cn[nH]c(=O)c4Cl)C3)c2)CC1 [P-0099, (R)-4-chloro-5-(3-((4-(4,4-dimethylcyclohex-1-en-1-yl)pyridin-2-yl)oxy)pyrrolidin-1-yl)pyridazin-3(2H)-one] | 0.001 to 10 µM | 0.001 to 10 µM
O=c1[nH]ncc(N2CC[C@@H](Oc3cc(C4CCOCC4)ccn3)C2)c1Cl [P-0072, (R)-4-chloro-5-(3-((4-(tetrahydro-2H-pyran-4-yl)pyridin-2-yl)oxy)pyrrolidin-1-yl)pyridazin-3(2H)-one] | 0.001 to 10 µM | 0.001 to 10 µM
Cc1nc(C)c(-c2cc(F)nc(O[C@@H]3CCN(c4cn[nH]c(=O)c4Cl)C3)c2)s1 [P-0174, (R)-4-chloro-5-(3-((4-(2,4-dimethylthiazol-5-yl)-6-fluoropyridin-2-yl)oxy)pyrrolidin-1-yl)pyridazin-3(2H)-one] | 0.001 to 10 µM | 0.001 to 10 µM
O=c1[nH]ncc(N2CC[C@@H](Oc3cc(C4=CCCCC4)ccn3)C2)c1Cl [P-0116, (R)-4-chloro-5-(3-((4-(cyclohex-1-en-1-yl)pyridin-2-yl)oxy)pyrrolidin-1-yl)pyridazin-3(2H)-one] | 0.001 to 10 µM | 0.001 to 10 µM
O=c1[nH]ncc(N2CC[C@@H](Oc3cc(-c4ccc(S(=O)(=O)NC5CC5)cc4Cl)ccn3)C2)c1Cl [P-0230, (R)-3-chloro-4-(2-((1-(5-chloro-6-oxo-1,6-dihydropyridazin-4-yl)pyrrolidin-3-yl)oxy)pyridin-4-yl)-N-cyclopropylbenzenesulfonamide] | 0.001 to 10 µM | 0.001 to 10 µM
